Reference: patent US9458515B2, “RNA including nucleoside compound, method for regulating amount of protein produced from the RNA, and nucleoside compound” (RIKEN, priority 2010, dated 2016)

Key:
[1] = Photoisomerization reaction assessed by time-dependent changes of absorption spectra; type: physicochemical; conditions: 25 μM in methanol, dark place; for photoisomerization from cis form to trans form: visible light of 550 nm; for photoisomerization from trans form to cis form: visible light of 420 nm
Experimental: A stock solution was prepared by dissolving the 8-phenylazoguanosine obtained in (3-1) in methanol so that the 8-phenylazoguanosine presented at a concentration of 25 μM in the stock solution. In a quartz cell measuring 1 cm per side was placed 200 μl out of the stock solution thus prepared. The quartz cell was irradiated with visible light having a wavelength of 420 nm in a dark place, so that photoisomerization of the trans-8-phenylazoguanosine was assessed by measuring time-dependent changes of absorption spectra of the 8-phenylazoguanosine. In this assessment, MAX-301 manufactured by Asahi Spectra Co., Ltd. was used as a light source, and M.C.420/10 nm manufactured by the same manufacturer was used as a filter. As shown in FIG. 4 (in the upper part), along with trans to cis photoisomerization of the trans-8-phenylazoguanosine, a peak of an absorbance at 420 nm decreased, and an absorbance at 500 to 600 nm increased.
Out of the stock solution prepared in (3-2-1), 200 μl of stock solution was isomerized to the cis form as described previously, after which the resulting product was placed in a quartz cell measuring 1 cm per side. The quartz cell was irradiated with visible light having a wavelength of 550 nm in a dark place, so that photoisomerization of cis-8-phenylazoguanosine was assessed by measuring time-dependent changes of absorption spectrum of the 8-phenylazoguanosine. […] As shown in FIG. 4 (in the lower part), along with trans photoisomerization of the cis-8-phenylazoguanosine, a peak of an absorbance at 420 nm increased, and an absorbance at 500 to 600 nm decreased.
A stock solution was prepared by dissolving the trans-8-(p-toluoylazo)guanosine obtained in (4-1) in methanol so that the trans-8-(p-toluoylazo) guanosine presented at a concentration of 25 μM in the stock solution. […] The quartz cell was irradiated with visible light having a wavelength of 420 nm in a dark place, so that photoisomerization of the trans-8-(p-toluoylazo)guanosine was assessed by measuring time-dependent change of absorption spectra of the trans-8-(p-toluoylazo)guanosine. […] As shown in FIG. 6 (in the upper part), along with cis photoisomerization of the trans-8-(p-toluoylazo)guanosine, a peak of an absorbance at 420 nm decreased, and an absorbance at 500 to 600 nm increased.
Out of the stock solution prepared in (4-2-1), 200 μl of stock solution was isomerized to the cis form as described previously, after which the resulting product was placed in a quartz cell measuring 1 cm per side. The quartz cell was irradiated with visible light having a wavelength of 550 nm in a dark place, so that photoisomerization of cis-8-(p-toluoylazo) guanosine was assessed by measuring time-dependent changes of absorption spectrum of the cis-8-(p-toluoylazo)guanosine. […]

[2] = Alternate cis-trans photoisomerization, durability against reversible photoisomerization (absorbance 420 nm); type: physicochemical; conditions: 25 μM in methanol, alternate 420 nm / 550 nm, each 20 seconds, 30 cycles
Experimental: A stock solution was prepared by dissolving the trans-8-phenylazoguanosine obtained in (3-1) in methanol so that the trans-8-phenylazoguanosine presented at a concentration of 25 μM in the stock solution. In a quartz cell measuring 1 cm per side was placed 200 μl out of the stock solution. The quartz cell was alternately irradiated with visible light having wavelength of 420 nm and with visible light having a wavelength of 550 nm, each for 20 seconds, in a dark place. While this process was repeated in 30 cycles, an absorbance (420 nm) was measured. From the result of the measurement, durability of the compound against reversible photoisomerization was assessed. MAX-301 manufactured by Asahi Spectra Co., Ltd. was used as a light source, and M.C.420/10 nm and M.C.550/10 nm manufactured by the same manufacturer were used as filters.

Compound | photoisomerization from cis form to trans form [1] | photoisomerization from trans form to cis form [1] | other results
Cc1ccc(/N=N\c2nc3c(=O)[nH]c(N)nc3n2[C@@H]2O[C@H](CO)[C@H](O)C2O)cc1 (stereo partly drawn) | photoisomerized nearly completely to the trans form |  | 
Cc1ccc(/N=N/c2nc3c(=O)[nH]c(N)nc3n2[C@@H]2O[C@H](CO)[C@H](O)C2O)cc1 (stereo partly drawn) |  | photoisomerized nearly completely to the cis form | 
Nc1nc2c(nc(/N=N\c3ccccc3)n2[C@@H]2O[C@H](CO)[C@H](O)C2O)c(=O)[nH]1 (stereo partly drawn) [cis-8-phenylazoguanosine] | photoisomerized nearly completely to the trans form |  | 
Nc1nc2c(nc(/N=N/c3ccccc3)n2[C@@H]2O[C@H](CO)[C@H](O)C2O)c(=O)[nH]1 (stereo partly drawn) [trans-8-phenylazoguanosine] |  | photoisomerized nearly completely to the cis form | 
trans-8-phenylazoguanosine |  |  | durability against reversible photoisomerization (decomposition, side-reaction) [2]: no decomposition and side-reaction; trans to cis and cis to trans photoisomerizations on alternate irradiation [2]: alternately took place
